{"source": "patent EP1834669A1", "about": "“Use of specific hydrazone compounds for the treatment of viral infections” (Heinrich-Pette-Institut, priority 2006, dated 2007)", "key": {"HIV-1 BaL": {"system": "HIV-1 BaL", "assay": "HIV-1 BaL infection of PM1 cells, p24 antigen in supernatant", "format": "cell-based", "conditions": "HIV-1 BaL-infected PM1 cells, p24Gag antigen, day 6 and 9 post-infection; dihydrochloride", "procedure": "The culture medium was changed at day 3 and 6 post-infection and the cells were split 1:1. p24^Gag antigen levels and cell viabilities were determined at day 6 and 9 post-infection. The percentage of inhibition of virus replication in the drug-treated cell culture, as compared to the untreated controls is shown in the upper panel. Cell viabilities from the same cultures were determined by alamarBlue™ assay (Serotec) and is shown in the lower panel. (B) Gag-specific Western-blot analysis. […] (C) Analysis of de novo infection. […]\n(§1) PM1 cells were cultured in RPMI 1640 medium containing 10% fetal calf serum (Pansystems GmbH) and antibiotics (penicillin and streptomycin) and infected with the virus strains exactly as described elsewhere (Hauber, I., Bevec, D., Heukeshoven, J., Krätzer, F., Horn, F., Choidas, A., Harrer, T. & Hauber, J. (2005) J. Clin. Invest 115, 76-85). […] At the same time cell viability (measured by alamarBlue™ assay) and p24 antigen levels in the supernatant (Innotest HIV p24 Antigen mAb; Innogenetics N. V.) were determined. […]"}, "HIV-1 isolate FE9": {"system": "HIV-1 isolate FE9", "assay": "Infection of PM1 cells with multidrug-resistant HIV-1 isolate FE9, p24 antigen in supernatant", "format": "cell-based", "procedure": "Culture medium was changed every third day and cells were split 1:1. Cell viabilities and p24 antigen levels were determined at the indicated days. The percentage of inhibition of virus replication in the drug-treated culture as compared with replication in the untreated control culture is shown in the upper panel. The respective virus growth curves as measured by p24 antigen levels in the culture supernatants are shown in the lower panel. n/a; not applicable. (B) Cellular toxicities were determined in the same cultures by alamarBlue™ assay (Serotec) for metabolic activity.\nHIV-1 Infection Experiments. […]\nas §1"}, "[1]": {"system": "PBMCs from a healthy donor", "assay": "Apoptosis assay, FACS with FITC-coupled annexin V", "format": "cell-based", "conditions": "0.4 µM, 12 days", "procedure": "Analysis of cellular toxicity. (A) Cell viability assay. […] (B) Cell-cycle analysis. […] FACS-analysis was performed by DNA-staining with propidiumiodide. (C) Apoptosis-assay.\nAnalysis of Cellular Toxicity."}, "eIF-5A": {"system": "eIF-5A", "sequence (P63241 whole entry)": "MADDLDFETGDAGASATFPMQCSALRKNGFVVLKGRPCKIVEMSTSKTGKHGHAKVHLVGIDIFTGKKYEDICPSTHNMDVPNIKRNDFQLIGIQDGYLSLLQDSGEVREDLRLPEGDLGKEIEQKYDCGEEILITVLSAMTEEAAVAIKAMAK", "assay": "Hypusine modification of eIF-5A, [14C]putrescine labeling, 2D gel electrophoresis and immunoprecipitation", "format": "cell-based", "conditions": "0.4 µM, PM1 and HeLaCD4-CAT cells", "procedure": "Protein separation was performed using equal amounts of radiolabeled extracts, by isoelectric focusing in the first dimension on an immobilized linear pH gradient (IPG) from pH 4.0 to 7.0, which was followed by SDS-PAGE separation in the second dimension. Only molecular mass of < 25.0 kDa is shown in the autoradiographies. Molecular mass standards are indicated in kDa on the right. […] Coomassie blue-staining of the gel served as protein loading control (lower panel).\nTwo-Dimensional Gel Electrophoresis and Immunoprecipitation Analysis. […] Gel analysis was performed by autoradiography as previously described (Hauber, I., Bevec, D., Heukeshoven, J., Krätzer, F., Horn, F., Choidas, A., Harrer, T. & Hauber, J. (2005) J. Clin. Invest 115, 76-85). For immunoprecipitation of eIF-5A, 2 x 10^6 HeLaCD4-CAT cells (obtained through the NIH AIDS Research and Reference Reagent Program from B.K.Felber and G.N.Pavlakis) were metabolically labeled as above. The various cellular extracts were prepared and analyzed using a rabbit polyclonal anti-eIF-5A antibody (Schatz, O., Oft, M., Dascher, C., Schebesta, M., Rosorius, O., Jaksche, H., Dobrovnik, M., Bevec, D. & Hauber, J. (1998) Proc. Natl. Acad. Sci. U. S. A 95, 1607-1612) as previously described in detail (Hauber, I., Bevec, D., Heukeshoven, J., Krätzer, F., Horn, F., Choidas, A., Harrer, T. & Hauber, J. (2005) J. Clin. Invest 115, 76-85)."}, "HIV-1 Rev pathway": {"system": "HIV-1 Rev pathway", "assay": "HIV-1 gag-pol mRNA export with GPV-RRE / GPV-4xCTE constructs in transfected HeLaCD4-CAT cells", "format": "cell-based", "conditions": "0.4 µM, HeLaCD4-CAT cells cultured 5 days, 48 hours post-transfection", "source_text": "Transcripts expressed from GPV-RRE access the CRM1/exporti nuclear export pathway. Messages expressed from GPV-4xCTE are transported across the nuclear envelope via the NXF1/TAP pathway. CMV-IE, cytomegalovirus immediate early promoter; pA, polyadenylation site; SD, splice donor; SA, splice acceptor; RRE, Rev reponse element; CTE, constitutive transport element. […] Likewise, cultures were transfected with GVP-4xCTE, a negative control plasmid (to maintain input DNA levels) and the constitutive internal control vector pBC12/CMV/SEAP. At 48 hours post-transfection cell supernatants were assayed for secreted alkaline phosphatase (SEAP) and p24 antigen levels. In addition, p55^Gag- and α-tubulin-specific (protein loading control) Western-blot analyses were performed from representative cell cultures at […].\nTransfection Experiments and Plasmids. HeLaCD4-CAT cells were transiently transfected using Lipofectamine and Plus reagent according to the manufacturer's protocol (Invitrogen Corp.). […] At 48 hours post-transfection, cellular lysates were prepared and the levels of β-galactosidase (transfection efficiency control) and luciferase were assayed by ELISA (Roche Applied Science) or luminescence (Promega), respectively. […]"}, "[2]": {"target": "T1, S-adenosylmethionine decarboxylase (SAMDC) (Homo sapiens, UniProt P17707)", "T1 sequence (P17707 68-334 limits assumed)": "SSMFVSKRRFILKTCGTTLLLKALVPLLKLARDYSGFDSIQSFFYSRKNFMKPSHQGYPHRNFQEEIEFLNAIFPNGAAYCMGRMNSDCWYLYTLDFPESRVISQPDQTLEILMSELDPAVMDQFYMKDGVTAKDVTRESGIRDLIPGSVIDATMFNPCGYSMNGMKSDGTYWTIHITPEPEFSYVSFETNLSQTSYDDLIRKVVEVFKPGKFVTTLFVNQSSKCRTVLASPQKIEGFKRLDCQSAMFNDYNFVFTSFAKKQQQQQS", "T1 sequence (P17707 1-67 limits assumed)": "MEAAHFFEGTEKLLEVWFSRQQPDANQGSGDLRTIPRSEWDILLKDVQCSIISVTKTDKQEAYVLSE", "conditions": "dihydrochloride, cited from earlier work"}}, "note": "Entries after “also recorded” stand apart in the source; their conditions may differ. Where two headings read alike, the source gives them in different places.", "data": [{"substance": "2-[4-(aminoiminomethyl)-2,3-dihydro-1H-inden-1-ylidene]-hydrazinecarboximidamide dihydrochloride", "values": [{"measurement": "HIV-1 BaL replication", "setting": "HIV-1 BaL", "value": "Inhibition of HIV-1 BaL replication; also recorded: pronounced antiviral effects"}, {"measurement": "formation of progeny viruses", "setting": "HIV-1 isolate FE9; PM1 cells infected with multiple HAART-resistant isolate FE9, 0.4 µM, dihydrochloride", "value": "Inhibition of a multiple HAART-resistant HIV-1 isolate; also recorded: inhibited"}, {"measurement": "virus replication", "setting": "HIV-1 isolate FE9; applied concentration 0.4 µM", "value": "perfectly blocked virus replication"}, {"measurement": "effects on cell death", "setting": "[1]", "value": "did not induce deleterious effects"}, {"measurement": "hypusine-formation in eIF-5A", "setting": "eIF-5A", "value": "prevents hypusine-formation"}, {"measurement": "HIV-1 Rev pathway", "setting": "HIV-1 Rev pathway", "value": "Specific inhibition"}, {"measurement": "inhibition of SAMDC", "setting": "[2]", "value": "potent inhibitor"}, {"measurement": "inhibition of SAMDC", "setting": "[2]; listed as 2-[4-(aminoiminomethyl)-2,3-dihydro-1H-inden-1-ylidene]-hydrazinecarboximidamide", "value": "efficient inhibitor"}]}]}
